Source: US8017611B2, “Pyridine and pyrazine derivatives -083” (AstraZeneca AB, priority 2007, dated 2011)

Each compound was assayed against T1, recombinant Axl tyrosine kinase (Homo sapiens, UniProt P30530) (assay: In vitro Axl kinase assay (AlphaScreen), Test (a)). Conditions: 1 μM; mean calculated from a larger number of replicates than the first value.
T1 construct: encompassing amino acids 473 to 894 of Axl; GST (N); made in house; host or cells: SF126 insect cells
T1 sequence (P30530 473-894): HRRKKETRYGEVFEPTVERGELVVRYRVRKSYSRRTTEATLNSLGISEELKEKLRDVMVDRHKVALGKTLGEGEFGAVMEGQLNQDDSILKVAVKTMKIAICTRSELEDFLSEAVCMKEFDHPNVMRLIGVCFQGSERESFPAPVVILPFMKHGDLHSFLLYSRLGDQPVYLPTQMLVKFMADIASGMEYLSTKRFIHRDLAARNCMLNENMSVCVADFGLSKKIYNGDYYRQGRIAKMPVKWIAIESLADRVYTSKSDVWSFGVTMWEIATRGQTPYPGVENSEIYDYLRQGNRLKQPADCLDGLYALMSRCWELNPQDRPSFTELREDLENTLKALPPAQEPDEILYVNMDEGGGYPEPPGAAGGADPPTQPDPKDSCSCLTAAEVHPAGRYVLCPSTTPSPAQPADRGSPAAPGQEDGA
Assay type: biochemical

Row | SMILES | % Axl tyrosine kinase inhibition at 1 μM concentration (second value, †) [%]
1 | Nc1ncc(-c2ccc(CN3CCOCC3)cc2)nc1-c1nc2ccccc2o1 [Example 20.6] | 99.2

Same assay, conditions: 1 μM; mean calculated from a larger number of replicates than the first value; read-out: % Axl tyrosine kinase inhibition at 1 μM concentration (second value, †)

Row | SMILES | inhibition at 1 µM [%]
2 | CC(C)(C)OC(=O)N1CCC(n2cc(-c3cnc(N)c(-c4nc5ccccc5o4)n3)cn2)CC1 [Example 15, Tert-butyl 4-[4-[5-amino-6-(1,3-benzoxazol-2-yl)pyrazin-2-yl]pyrazol-1-yl]piperidine-1-carboxylate] | 99.4

Same assay, conditions: test compound at 1 μM; first value quoted

Row | SMILES | % Axl tyrosine kinase inhibition at 1 μM concentration [%]
3 | Nc1ncc(-c2ccc(OC[C@H]3CCCN3)cc2)cc1-c1nc2ncccc2o1 [Example 43B.28] | 98.7
4 | CN1CCCCC1CCOc1ccc(-c2cnc(N)c(-c3nc4ncccc4o3)c2)cc1 (centres unmarked) [Example 43B.13] | 96.8
5 | CNCCCOc1ccc(-c2cnc(N)c(-c3nc4ncccc4o3)c2)cc1OC [Example 43C.28] | 51.0
6 | CN(C)S(=O)(=O)c1cccc(-c2cnc(N)c(-c3nc4ccccc4o3)n2)c1 [Example 20.1] | 91.8
7 | COc1cc(-c2cnc(N)c(-c3nc4ncccc4o3)c2)ccc1OC1CCNCC1 [Example 43C.29] | 99.9
8 | CN1CCN(CCCOc2ccc(-c3cnc(N)c(-c4nc5ncccc5o4)c3)cc2)CC1 [Example 43B.14] | 95.1
9 | Nc1ncc(-c2ccc(C(=O)N3CCCCC3CCN3CCCC3)cc2)cc1-c1nc2cccnc2o1 (centres unmarked) [Example 45A.29] | 98.8
10 | CC(C)(C)OC(=O)N1CCC(C(=O)Nc2cccc(-c3cnc(N)c(-c4nc5ncccc5o4)c3)c2)CC1 [Example 10A.3] | 87.2
11 | CN1CCN(c2ncc(-c3cnc(N)c(-c4nc5cccnc5o4)c3)s2)CC1 [Example 25.12] | 38.2
12 | N#Cc1cccc(-c2cnc(N)c(-c3nc4cnccc4o3)c2)c1 [Example 8A.11] | 89.6
13 | COC(=O)N1CCC(n2cc(-c3cnc(N)c(-c4nc5ncccc5o4)c3)cn2)CC1 [Example 55.3] | 99.5
14 | CN(C)S(=O)(=O)c1ccc(-c2cnc(N)c(-c3nc4ccccc4o3)n2)cc1 [Example 20.12] | 92.7
15 | COc1cc(N2CCNCC2)ccc1-c1cnc(N)c(-c2nc3ccccc3o2)c1 [Example 2.38] | 99.0
16 | CC1CCCCN1CC1CCCN1C(=O)c1ccc(-c2cnc(N)c(-c3nc4cccnc4o3)c2)cc1 (centres unmarked) [Example 45A.18] | 99.7
17 | NCc1ccc(-c2cnc(N)c(-c3nc4ccccc4o3)c2)cc1 [Example 2.13] | 99.7
18 | Nc1ncc(-c2ccc(C(=O)N3CCCC3CN3CCCCCC3)cc2)cc1-c1nc2cccnc2o1 (centres unmarked) [Example 45A.17] | 99.6
19 | Nc1ncc(-c2ccc(C(=O)NCCO)cc2)cc1-c1nc2ncccc2o1 [Example 10A.5] | 91.4
20 | Nc1ncc(-c2ccc(C(=O)N3CCC(CN4CCNCC4)CC3)cc2)cc1-c1nc2cccnc2o1 [Example 45A.98] | 97.6
21 | CN1CCC(n2cc(-c3cnc(N)c(-c4nc5ccccc5o4)c3)c(C#N)n2)CC1 [Example 41.28] | 100.0
22 | COc1cccc2nc(-c3cc(-c4cnn(C5CCNCC5)c4)cnc3N)oc12 [Example 38.5] | 100.0
23 | Nc1ncc(-c2ccc(C(=O)NCCCN3CC[C@H](F)C3)cc2)cc1-c1nc2cccnc2o1 [Example 45A.40] | 98.3
24 | CO[C@H](C)C(=O)N1CCC(n2cc(-c3cnc(N)c(-c4nc5cccnc5o4)c3)cn2)CC1 [Example 59.9] | 99.1
25 | CNC(=O)c1nn(C2CCNCC2)cc1-c1cnc(N)c(-c2nc3ccccc3o2)c1 [Example 62.4] | 99.8
26 | COc1cc(-c2cnc(N)c(-c3nc4ncccc4o3)c2)ccc1OCCCN1CCNCC1 [Example 43C.32] | 99.8
27 | CN1CCC(N(C)C(=O)c2ccc(-c3cnc(N)c(-c4nc5cccnc5o4)c3)cc2)C1 (centres unmarked) [Example 45A.3] | 98.0
28 | CN(C)CCNC(=O)c1cccc(-c2cnc(N)c(-c3nc4ccccc4o3)c2)c1 [Example 2.8] | 96.5

Row | SMILES | % Axl tyrosine kinase inhibition at 1 μM concentration [%]
29 | Nc1ncc(-c2cnn(C3CCN(C(=O)CO)CC3)c2)cc1-c1nc2ncccc2o1 [Example 57.2] | 99.4
30 | Nc1ncc(-c2ccc(C(=O)N3CCC(N4CCCCC4)CC3)cc2)cc1-c1nc2cccnc2o1 [Example 45A.52] | 94.3
31 | COCc1cccc(-c2cnc(N)c(-c3nc4ccccc4o3)c2)c1 [Example 2.15] | 80.2
32 | Nc1ncc(-c2ccc(C(=O)N3CC4CNCC4C3)cc2)cc1-c1nc2cccnc2o1 (centres unmarked) [Example 45A.94] | 98.9
33 | Nc1ncc(-c2ccc(C(=O)N3CCC(N4CCCC4)CC3)cc2)cc1-c1nc2ncccc2o1 [Example 45B.5] | 99.9
34 | COc1cc(-c2cnc(N)c(-c3nc4ncccc4o3)c2)ccc1OCCC1CCNCC1 [Example 43C.31] | 99.3
35 | Nc1ncc(-c2cccc(S(=O)(=O)NC3CC3)c2)cc1-c1nc2ncccc2o1 [Example 10A.10] | 90.0
36 | Nc1ncc(-c2cccc(S(=O)(=O)N3CCOCC3)c2)cc1-c1nc2cnccc2o1 [Example 8A.13] | 71.3
37 | CN1CCC(n2cc(-c3cnc(N)c(-c4nc5ccc(OC(F)(F)F)cc5o4)c3)cn2)CC1 [Example 7.10] | 95.7
38 | CN(C)CCCNC(=O)c1ccc(-c2cnc(N)c(-c3nc4ncccc4o3)c2)cc1 [Example 10A.12] | 99.0
39 | Nc1ncc(-c2ccc(OCC3CCCNC3)cc2)cc1-c1nc2ncccc2o1 (centres unmarked) [Example 43B.41] | 99.0
40 | Nc1ncc(-c2cccc(C(=O)NCCN3CCCC3)c2)cc1-c1nc2cnccc2o1 [Example 8A.22] | 95.3
41 | Nc1ncc(-c2cccc(N3CCOCC3)c2)cc1-c1nc2ccncc2o1 [Example 11A.12] | 93.7
42 | Nc1ncc(-c2ccc(OCCOCCN3CCNCC3)cc2)cc1-c1nc2ncccc2o1 [Example 43B.43] | 92.3
43 | CN(C)C(=O)[C@@H]1CCCN1C(=O)c1ccc(-c2cnc(N)c(-c3nc4cccnc4o3)c2)cc1 [Example 45A.75] | 91.6
44 | CN(C)C(=O)c1nn(C2CCNCC2)cc1-c1cnc(N)c(-c2nc3ccccc3o2)c1 [Example 62.2] | 98.8
45 | Nc1ncc(-c2cnn(CC3CCNCC3)c2)cc1-c1nc2ccccc2o1 [Example 29.7] | 99.8
46 | Nc1ncc(-c2cccc(C(=O)NCCN3CCCC3)c2)cc1-c1nc2ncccc2o1 [Example 10A.9] | 82.5
47 | Nc1ncc(-c2ccc(CN3CCOCC3)cc2)nc1-c1nc2ccccc2o1 [Example 20.6] | 99.1
48 | CC(C)N1CCC[C@H]1CNC(=O)c1ccc(-c2cnc(N)c(-c3nc4cccnc4o3)c2)cc1 [Example 45A.43] | 99.9
49 | CN1CCCC1CCOc1ccc(-c2cnc(N)c(-c3nc4ncccc4o3)c2)cc1 (centres unmarked) [Example 43B.17] | 99.5
50 | Nc1ncc(-c2ccc(C(=O)NC3CCCNC3)cc2)cc1-c1nc2cccnc2o1 (centres unmarked) [Example 45A.84] | 99.1
51 | Nc1ncc(-c2cccc(C(=O)NCCN3CCOCC3)c2)cc1-c1nc2cccnc2o1 [Example 9A.22] | 81.9
52 | CN1CCOC(CNC(=O)c2ccc(-c3cnc(N)c(-c4nc5cccnc5o4)c3)cc2)C1 (centres unmarked) [Example 45A.28] | 97.5
53 | CC(O)C(=O)N1CCC(n2cc(-c3cnc(N)c(-c4nc5ccccc5o4)c3)cn2)CC1 (centres unmarked) [Example 34.3] | 99.7

Same assay, conditions: test compound at 1 μM; first value quoted; read-out: % Axl tyrosine kinase inhibition at 1 μM concentration

Row | SMILES | inhibition at 1 µM [%]
54 | Nc1ncc(-c2cccc(N3CCNCC3)c2)cc1-c1nc2ccccc2o1 [Example 2.10, 3-(1,3-Benzoxazol-2-yl)-5-(3-piperazin-1-ylphenyl)pyridin-2-amine] | 99.5
55 | Nc1ncc(-c2ccc(OCCCN3CCCC3)cc2)cc1-c1nc2cccnc2o1 [Example 42, 3-oxazolo[5,4-b]pyridin-2-yl-5-[4-(3-pyrrolidin-1-ylpropoxy)phenyl]pyridin-2-amine] | 99.7
56 | Nc1ncc(-c2cnn(CCCO)c2)cc1-c1nc2ccccc2o1 [Example 29.1, 3-[4-[6-amino-5-(1,3-benzoxazol-2-yl)-3-pyridyl]pyrazol-1-yl]propan-1-ol] | 99.7
57 | CC(C)(C)OC(=O)N1CCC(n2cc(-c3cnc(N)c(-c4nc5ccccc5o4)n3)cn2)CC1 [Example 15, Tert-butyl 4-[4-[5-amino-6-(1,3-benzoxazol-2-yl)pyrazin-2-yl]pyrazol-1-yl]piperidine-1-carboxylate] | 93.1
58 | CC(O)c1nn(C2CCNCC2)cc1-c1cnc(N)c(-c2nc3ccccc3o2)c1 (centres unmarked) [Example 60, 1-[4-[6-amino-5-(1,3-benzoxazol-2-yl)-3-pyridyl]-1-(4-piperidyl)pyrazol-3-yl]ethanol] | 99.8
59 | Nc1ncc(-c2cnn(C3CCNCC3)c2CO)cc1-c1nc2ccccc2o1 [Example 61, [4-[6-amino-5-(1,3-benzoxazol-2-yl)-3-pyridyl]-2-(4-piperidyl)pyrazol-3-yl]methanol] | 99.9
